Values of other authors, collected in paper PMC8091910 (Proteins, 2019).

Experiments:
[1] = system: pancreatic cancer cell (RWP1); details: human peptide library screen

binding to EME1 (EME1): binds to EME1
Sequence: RTLSQLYCSYGPLT [C-terminal MUS81 peptide]
reduction of cell viability in cancer cell lines (cancer cell lines): reducing cell viability in cancer cell lines
disruption / inhibition of MUS81–EME1 complex (MUS81–EME1 complex): disrupting the MUS81–EME1 complex
reduction of cell viability [1]: significantly reduced cell viability
